Assay results from PubChem BioAssay AID608 (Sanford-Burnham Center for Chemical Genomics, 2007).
pKd: −log10 of the molar value. The source made the active and inactive calls. No rule for the calls is given here.

The molecules below were run against Peptidyl-prolyl cis-trans isomerase FKBP1A (Homo sapiens) (UniProt P62942) (assay: FKBP12 binders, biophysical, NMR detection (AID 608)). Details: NMR binding, purified FKBP12.
Sequence of Peptidyl-prolyl cis-trans isomerase FKBP1A (Homo sapiens) (P62942 whole entry, looked up): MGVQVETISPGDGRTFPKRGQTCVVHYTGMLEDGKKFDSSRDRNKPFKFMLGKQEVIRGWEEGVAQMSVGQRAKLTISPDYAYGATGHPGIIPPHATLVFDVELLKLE
For `CN(C)c1nc(N2CCOCC2)c2cnn(C)c2n1`, the Kd was > 4 mM (inactive). `CC(=O)Nc1ccc(C(=O)N2CCOCC2)cc1Cl` was tested, and the Kd was > 4 mM (inactive). `Cn1nnc2cc(C(=O)N3CCSCC3)ccc21` was tested, and the Kd was > 4 mM (inactive). With `Cc1ccc(C)c(S(=O)(=O)NCc2cccnc2)c1` the Kd was > 4 mM (inactive). For `OCC1CNc2ccccc2O1` (stereo unspecified), the Kd was > 4 mM (inactive). For `Cc1onc(-c2ccccc2)c1CN`, the Kd was > 4 mM (inactive). With `CCCNC(=O)c1cnc2n(c1=O)CCS2` the Kd was > 4 mM (inactive). In the case of `COc1cc(C(C)=O)cc(OC)c1O`, the Kd was > 4 mM (inactive). In the case of `CC1CN=C(Nc2ccccc2)S1` (stereo unspecified), the Kd was > 4 mM (inactive). `O=C(O)Cc1noc2ccccc12` was tested, and the Kd was > 4 mM (inactive). With `Nc1oncc1-c1ccccn1` the Kd was > 4 mM (inactive). For `Clc1ccc(-c2noc(CN3CCCC3)n2)cc1`, the Kd was > 4 mM (inactive). In the case of `O=c1[nH]cc(COCc2ccccc2)c(=O)[nH]1`, the Kd was > 4 mM (inactive). With `O=C(O)c1ccc(CN2CCOCC2)cc1` the Kd was > 4 mM (inactive). With `CC(NC(=O)c1ccco1)c1ccc2c(c1)OCCO2` (stereo unspecified) the Kd was > 4 mM (inactive). `NC(=NCCC[C@H](N)C(=O)O)NC(CCC(=O)O)C(=O)O` (stereo partly specified) was tested, and the Kd was > 4 mM (inactive). `O=c1cnnc(Nc2ccc(O)cc2)[nH]1` was tested, and the Kd was > 4 mM (inactive). For `CNc1ccccc1C(=O)O`, the Kd was > 4 mM (inactive). `O=c1oc2c(O)c(O)cc3c(=O)oc4c(O)c(O)cc1c4c23` was tested, and the Kd was > 4 mM (inactive). In the case of `O=C(Cn1c(-c2cscn2)nc2ccccc21)Nc1ccc(Cl)cc1`, the Kd was > 4 mM (inactive). `Cn1nc(C(C)(C)C)cc1N` was tested, and the Kd was > 4 mM (inactive). For `O=c1n(-c2ccccc2)c(=O)n2n1CCCC2`, the Kd was > 4 mM (inactive). For `Cc1cc(C(=O)Nc2sc(C)c(C)c2C#N)no1`, the Kd was > 4 mM (inactive). `O=C(O)CSc1nnc(-c2cccs2)o1` was tested, and the Kd was > 4 mM (inactive). In the case of `COc1c(O)cc2c(-c3ccccc3)cc(=O)oc2c1OC`, the Kd was > 4 mM (inactive). With `Nc1ccc(CCC(=O)O)cc1` the Kd was > 4 mM (inactive). For `Nc1nc(O)c(C2=c3cc(Cl)ccc3=NC2=O)s1`, the Kd was > 4 mM (inactive). `Nc1cccnc1Oc1ccc(F)cc1F` was tested, and the Kd was > 4 mM (inactive). With `CC(C1OC(C)(C)C(O)C1O)[C@@H]1CC[C@]2(C)C3=CCC4C(C)(C)C(=O)CC[C@]4(C)C3CC[C@@]12C` (stereo partly specified) the Kd was > 4 mM (inactive). `O=C(O)Cn1c(C(F)(F)F)nc2ccccc21` was tested, and the Kd was > 4 mM (inactive). With `O=C(Nc1nncs1)C1(c2ccccc2)CCCC1` the Kd was > 4 mM (inactive). With `c1coc(CNc2ncnc3nc[nH]c23)c1` the Kd was > 4 mM (inactive). For `O=C1CSC(=Nc2cccc(C(F)(F)F)c2)N1`, the Kd was > 4 mM (inactive). In the case of `NC1=C(c2ccccc2)C(=O)c2ccccc21`, the Kd was > 4 mM (inactive). In the case of `Cc1cccc(N2C(=O)CC(=O)NC2=O)c1`, the Kd was > 4 mM (inactive). With `NCc1ccc(-n2cccn2)cc1` the Kd was > 4 mM (inactive). In the case of `CCSc1nc2ccccc2n1CC(N)=O`, the Kd was > 4 mM (inactive). For `NCCc1nc2ccccc2[nH]1`, the Kd was > 4 mM (inactive). For `O=C(CN1CCOCC1)Nc1cccc(Br)c1`, the Kd was > 4 mM (inactive). `c1ccc2c(NC3=NCCS3)cccc2c1` was tested, and the Kd was > 4 mM (inactive). For `Cn1nc(C(=O)N2CCCC2)c2ccccc2c1=O`, the Kd was > 4 mM (inactive). For `COc1ccccc1N1C(=N)SCC1=O`, the Kd was > 4 mM (inactive). In the case of `Nc1cc(=O)[nH]c(=S)n1CCc1ccccc1`, the Kd was > 4 mM (inactive). With `CCOc1ccc(C(=O)c2ccncc2)cc1` the Kd was > 4 mM (inactive). With `CC(=O)c1c(O)cc(C)n(Cc2ccccc2)c1=O` the Kd was > 4 mM (inactive). `CC1CCN(S(=O)(=O)N(C)C)CC1` was tested, and the Kd was > 4 mM (inactive). For `O=c1c(O)cccc2cc(O)c(O)c(O)c12`, the Kd was > 4 mM (inactive). For `OCc1ccc2nsnc2c1`, the Kd was > 4 mM (inactive). With `Cc1cc(N)ccc1NC(=O)c1ccco1` the Kd was > 4 mM (inactive). In the case of `O=C(O)CCc1ccc2c(c1)OCO2`, the Kd was > 4 mM (inactive). In the case of `O=C(/C=C/c1ccccc1)c1ccc(O[C@@H]2O[C@H](CO)[C@@H](O)[C@H](O)[C@H]2O)cc1O`, the Kd was > 4 mM (inactive). `O=C(O)Cn1nnnc1-c1ccc(F)cc1` was tested, and the Kd was > 4 mM (inactive). With `O=C(Nc1nncs1)Oc1ccccc1` the Kd was > 4 mM (inactive). `CC(C)=CC(=O)Nc1ccc(S(N)(=O)=O)cc1` was tested, and the Kd was > 4 mM (inactive). `CC(C)=CCc1c2c(c3occ(-c4ccc(O)c(O)c4)c(=O)c3c1O)C=CC(C)(C)O2` was tested, and the Kd was > 4 mM (inactive). With `Nc1cccc2nonc12` the Kd was > 4 mM (inactive). In the case of `OCc1ccc(-n2cncn2)cc1`, the Kd was > 4 mM (inactive). In the case of `Oc1ccc(-c2n[nH]c(=S)n2Cc2ccco2)cc1`, the Kd was > 4 mM (inactive). In the case of `O=C(O)CCC(=O)Nc1ccccn1`, the Kd was > 4 mM (inactive). In the case of `Cc1nnc(-n2cnc3ccccc32)c2ccccc12`, the Kd was > 4 mM (inactive). In the case of `Nc1c(/C=C2\C=Nc3ccccc32)c(=O)nc2scnn12`, the Kd was > 4 mM (inactive). `CN1CCC[C@H]1c1cccnc1` was tested, and the Kd was > 4 mM (inactive). For `CC(=O)O[C@H]1C[C@@H](OC(C)=O)C(C)(C)C2CC(=O)[C@]3(C)C(CC[C@@]4(C)[C@H](C(=O)O)OC(=O)C5OC543)[C@]21C` (stereo partly specified), the Kd was > 4 mM (inactive). For `NC(=O)c1ccccc1NC(=O)C1CCCO1` (stereo unspecified), the Kd was > 4 mM (inactive). In the case of `COc1c2ccoc2c(OC)c2oc(=O)ccc12`, the Kd was > 4 mM (inactive). In the case of `COc1ccccc1NC(=O)C1CCC(=O)N1` (stereo unspecified), the Kd was > 4 mM (inactive). For `Brc1ccccc1Cn1c(-c2cscn2)nc2ccccc21`, the Kd was “inactive”. For `OCC1CCCC1O` (stereo unspecified), the Kd was > 4 mM (inactive). For `CCN1C(=O)c2c(C)nc3ccccc3c2C1=O`, the Kd was > 4 mM (inactive). `Cc1cc(NC(=O)c2ccc3c(c2)OCO3)no1` was tested, and the Kd was > 4 mM (inactive). With `Cc1ccc(NS(=O)(=O)N2CCCCC2)cc1Cl` the Kd was “inactive”. In the case of `CN(C)C(=O)CSc1cccc2cccnc12`, the Kd was > 4 mM (inactive). `Cc1nnc(NC(=O)C(C)Sc2nncn2C)s1` (stereo unspecified) was tested, and the Kd was > 4 mM (inactive). For `c1cncc(Nc2nc(-c3ccncc3)cs2)c1`, the Kd was > 4 mM (inactive). `CN1CCC(N2CCCC(C(N)=O)C2)CC1` (stereo unspecified) was tested, and the Kd was > 4 mM (inactive). For `NC(=S)CN1CCCC1=O`, the Kd was > 4 mM (inactive). With `C=CCn1c(=S)[nH]c2ccc(Br)cc2c1=O` the Kd was > 4 mM (inactive). In the case of `CCSc1nnc(-c2ccccc2N)c(=O)[nH]1`, the Kd was > 4 mM (inactive). In the case of `NC(=O)CN1C(=O)c2cccc3cccc1c23`, the Kd was > 4 mM (inactive). `CC(=O)NS(=O)(=O)c1ccc(C)cc1` was tested, and the Kd was > 4 mM (inactive). `NC1CSCC1O` (stereo unspecified) was tested, and the Kd was > 4 mM (inactive). For `O=C1NC(=S)N/C1=C\c1cccnc1`, the Kd was > 4 mM (inactive). `COC(=O)C1Cc2ccccc2N1` (stereo unspecified) was tested, and the Kd was > 4 mM (inactive). In the case of `C=CC(C)(O)CC/C=C(\C)CCC=C(C)C` (stereo unspecified), the Kd was > 4 mM (inactive). In the case of `COc1cc(O)ccc1C(C)=O`, the Kd was > 4 mM (inactive). With `NCc1cn2ccccc2n1` the Kd was > 4 mM (inactive). `O=C1C2=C(SCCS2)C(=O)N1CCCO` showed a pKd of 3.60. `CC(C)C1COc2cc3oc(=O)ccc3cc2O1` (stereo unspecified) was tested, and the Kd was > 4 mM (inactive). For `CC(=O)Oc1ccc(/C=C/c2cc(OC(C)=O)cc(OC(C)=O)c2)cc1`, the Kd was > 4 mM (inactive). With `Cc1nc2cc(Cl)ccc2n1CCO` the Kd was > 4 mM (inactive). In the case of `O=c1c(O)c(-c2ccc(O)c(O)c2)oc2cc(O)ccc12`, the Kd was > 4 mM (inactive).
